The subject of assay [1] is isolated rat hearts. The assay can be described thus: Langendorff isolated heart model, ischemia/reperfusion; recovery of contractibility. On the set-up: species or system Sprague-Dawley rat. The conditions noted are these: 30 min regional ischemia, 60 min reperfusion; N-acetyl cysteine 36.8 mmol/L, deferoxamine 3.9 mmol/L; N=3 rats per group. From the text:
Laboratory trials in murine model, by means of the use of the Langendorff isolated heart model, allowed to preliminarily establish the contribution of the secondary components of the solution in isolated form, in conjunction and in tri-association with sodium ascorbate on the attenuation of lethal reperfusion by means of the evaluation of the percentage of recovery of contractibility, subsequent to the reestablishment of the blood flow, […]
Sprague-Dawley adult male rats (250 to 300 g) were anesthetized with pentobarbital (80 mg/kg IP). Heparine (100 U/kg IV) was administered and the hearts were rapidly extracted and perfused with Krebs-Henseleit solution oxygenated in a Langendorff perfusion system at 37° C. […] The ventricular pressure was measured with a latex balloon inserted, in the left ventricular and connected to a pressure transductor. […]
Evaluation of the injury: The capacity was measured of both components isolated, in conjunction and in tri-association with sodium ascorbate in high dosage, in order to recover the cardiac contractibility, loss associated to the injury due to reperfusion.
For the analysis of the results parametric statistic of the continuous variables was used, expressing the position in terms of arithmetic mean and dispersion based on the standard deviation. The differences between multiple groups were analysed by means of ANOVA with Bonferroni test as Post-Hoc. […]

For assay [2], the system named is patients diagnosed with acute myocardium infarction with indication of primary angioplasty. The assay can be described thus: PREVEC Phase II randomized, double blind, placebo controlled clinical trial; left ventricular ejection fraction by cardiac magnetic resonance. Type of assay: in vivo, human. The method, then:
In a group of 50 patients subjected to a primary angioplasty due to acute infarction diagnosis, treated only with massive dosage of sodium ascorbate (equivalent dosage to the one used in the three component formulation), a recovery was observed that has never before been reported of the cardiac function in a medium term, only referable to an attenuation of the late effects of the injury due to reperfusion. The evaluation was carried out by means of cardiac magnetic resonance, technique considered the present gold standard for this kind of studies.
A randomized, double blind, placebo controlled clinical trial was applied to patients diagnosed with acute myocardium infarction with indication of primary angioplasty, previously enrolled.
As inclusion criteria, was defined: Individuals of any sex older than 18 years of age; Latency of admission of up to 12 hours since presenting symptoms; First myocardium infarction; Killip 1 and 2; Capacity and willingness to sign consent form.
As exclusion criteria was established: Renal or hepathic insufficiency history; Cardiac failure history (NYHA III, IV); Cardiogenic shock; Comorbility that determines a life expectancy<6 months; Participation in another investigation; Pregnancy; Glucose 6—Phosphate Dehydrogenase deficiency.
Patients were administered an oral dose of vitamin E (800 IU), followed by a sodium ascorbate infusion (320 mmol/L). The placebo group received an inert infusion of sodium chloride solution of the same osmolarity as the sodium ascorbate infusion. Serial blood samples were taken to analyse biomarkers related to myocardium, injury, oxidative stress and inflammation in order to evaluated efficiency on injury due to early reperfusion. […]
The statistical analysis of the preliminary results, was carried out using non parametric statistics, using the median as position measurement, interquartile range as dispersion measurement and the Mann-Whitney U test to determine the statistical significance. Differences between the multiple groups was analysed by means of a Kruskal-Wallis test. […]

With `CC(=O)N[C@@H](CS)C(=O)O` [N-acetyl cysteine], the “improvement of recovery of contractibility regarding the control group (Placebo)” value in assay [1] is on record as 189%. Still for that read-out and setting: next, `CC(=O)N(O)CCCCCNC(=O)CCC(=O)N(O)CCCCCNC(=O)CCC(=O)N(O)CCCCCN` [deferoxamine]: 113%. `O=C1O[C@H]([C@@H](O)CO)C([O-])=C1O.[Na+]` [sodium ascorbate]: the “early cardiac function (left ventricular ejection fraction), treated versus placebo” value in assay [2] (day 6 after primary angioplasty, sodium ascorbate infusion 320 mmol/L after oral vitamin E 800 IU) was “did not show any difference”. For the same compound, in assay [2] (difference of values 84 and six days after angioplasty, p<0.05), the “change in left ventricular ejection (difference between day 84 and day 6), treated versus placebo” value is listed as “significantly higher”. For the same compound, the “left ventricular ejection fraction, higher in treated patients versus placebo” value in assay [2] (three months (day 84) after primary angioplasty, sodium ascorbate infusion 320 mmol/L after oral vitamin E 800 IU, p<0.05) was 33%.

The record behind these values is US20170333393A1, “INJECTABLE ANTIOXIDANT FORMULATION FOR INTRAVENOUS USE OF SODIUM ASCORBATE IN HIGH DOSAGE, N-ACETYL CYSTEINE, AND DEFEROXAMINE; METHOD OF ADMINISTRATION AND USE FOR PREVENTING INJURY DUE TO REPERFUSION; AND KIT” (UNIVERSIDAD DE CHILE, priority 2014, published 2017).
